{"source": "patent US5204349A", "about": "“Amide-substituted derivatives of spiroindanylcamphorsulfonyl oxytocin antagonists” (priority 1991, dated 1993)", "origin": "cited, not measured here", "key": {"[1]": {"settings": "compared with ritodrine"}, "[2]": {"settings": "tocolytic use, mother and infant"}}, "note": "Read-outs that look alike come from different tables or passages of the source."}
{"smiles": "CC(NCCc1ccc(O)cc1)C(O)c1ccc(O)cc1", "note": "(stereo not drawn) [Ritodrine]", "values": [{"measurement": "side effects", "setting": "[2]", "value": "causes a number of cardiovascular and metabolic side effects in the mother, including tachycardia, increased renin secretion, hyperglycemia (and reactive hypoglycemia in the infant)"}]}
{"smiles": "CCO", "note": "[Ethanol]", "values": [{"measurement": "effectiveness in preventing premature labor", "setting": "[1]", "value": "as effective as ritodrine in preventing premature labor"}, {"measurement": "reduction in the incidence of fetal respiratory distress", "setting": "[1]", "value": "does not produce a corresponding reduction in the incidence of fetal respiratory distress that administration of ritodrine does"}]}
{"smiles": "CC(C)(C)NCC(O)c1cc(O)cc(O)c1", "note": "(stereo not drawn) [terbutaline]", "values": [{"measurement": "side effects", "setting": "[2]", "value": "side effects similar to those of ritodrine"}]}
{"smiles": "O=S(=O)([O-])[O-].[Mg+2]", "note": "[Magnesium sulfate]", "values": [{"measurement": "adverse effects at plasma concentrations above the therapeutic range", "setting": "plasma concentrations above 4 to 8 mg/dL", "value": "can cause inhibition of cardiac conduction and neuromuscular transmission, respiratory depression and cardiac arrest"}]}
{"smiles": "CC(C)(C)NCC(O)c1ccc(O)c(CO)c1", "note": "(stereo not drawn) [albuterol]", "values": [{"measurement": "side effects", "setting": "in vivo", "value": "side effects similar to those of ritodrine"}]}
